Results published in the NIST ThermoML archive (doi:10.1021/je700260f).

Details: Liquid, Vibrating tube method

FC(C(F)(F)F)C(F)(F)F [1,1,1,2,3,3,3-heptafluoropropane]
Details	mass density [kg/m3]
313.15 K, 33848 kPa	1503.2
313.15 K, 33888 kPa	1503.3
313.15 K, 33928 kPa	1503.5
313.15 K, 33981 kPa	1503.8
313.15 K, 34027 kPa	1503.8
313.15 K, 34060 kPa	1503.9
313.15 K, 34100 kPa	1504
313.15 K, 34136 kPa	1504.1
313.15 K, 34171 kPa	1504.4
313.15 K, 34201 kPa	1504.5
313.15 K, 34232 kPa	1504.6
313.15 K, 34269 kPa	1504.6
313.15 K, 34305 kPa	1504.8
313.15 K, 34336 kPa	1504.7
313.15 K, 34374 kPa	1505
313.15 K, 34408 kPa	1505.1
313.15 K, 34430 kPa	1505.2
313.15 K, 34451 kPa	1505.2
313.15 K, 34461 kPa	1505.2
313.15 K, 34473 kPa	1505.2
313.15 K, 34482 kPa	1505.4
313.15 K, 34489 kPa	1505.4
313.16 K, 1420 kPa	1328.8
313.16 K, 1448 kPa	1329.3
313.16 K, 9648 kPa	1395.4
313.16 K, 9676 kPa	1395.6
313.16 K, 9701 kPa	1395.7
313.16 K, 9733 kPa	1395.9
313.16 K, 9768 kPa	1396.1
313.16 K, 9796 kPa	1396.4
313.16 K, 10034 kPa	1397.9
313.16 K, 11599 kPa	1407.5
313.16 K, 11650 kPa	1407.8
313.16 K, 16202 kPa	1432.4
313.16 K, 16267 kPa	1432.9
313.16 K, 16535 kPa	1434.1
313.16 K, 16676 kPa	1434.8
313.16 K, 16775 kPa	1435.3
313.16 K, 21124 kPa	1455.4
313.16 K, 21173 kPa	1455.5
313.16 K, 23260 kPa	1464.4
313.16 K, 23309 kPa	1464.6
313.16 K, 23346 kPa	1464.7
313.16 K, 25084 kPa	1471.9
313.16 K, 25125 kPa	1471.9
313.16 K, 25173 kPa	1472.1
323.13 K, 960 kPa	1272.4
323.13 K, 990 kPa	1272.7
323.13 K, 1310 kPa	1277.3
323.13 K, 1540 kPa	1280.5
323.13 K, 1600 kPa	1281.2
323.13 K, 1800 kPa	1283.9
323.13 K, 1820 kPa	1284.2
323.13 K, 1840 kPa	1284.5
323.13 K, 2040 kPa	1287.1
323.13 K, 2060 kPa	1287.3
323.13 K, 2080 kPa	1287.6
323.13 K, 2100 kPa	1287.9
323.13 K, 2120 kPa	1288.2
323.13 K, 2140 kPa	1288.3
323.13 K, 2160 kPa	1288.7
323.13 K, 2180 kPa	1288.9
323.13 K, 2190 kPa	1289.2
323.13 K, 2220 kPa	1289.2
323.13 K, 2230 kPa	1289.4
323.13 K, 2250 kPa	1289.8
323.13 K, 2270 kPa	1290
323.13 K, 3000 kPa	1298.9
323.13 K, 3030 kPa	1299.3
323.13 K, 3090 kPa	1299.8
323.13 K, 3110 kPa	1300.2
323.13 K, 3130 kPa	1300.3
323.13 K, 3150 kPa	1300.6
323.13 K, 3180 kPa	1300.8
323.13 K, 3200 kPa	1301.3
323.13 K, 3230 kPa	1301.4
323.13 K, 3250 kPa	1301.7
323.13 K, 3270 kPa	1301.9
323.13 K, 3290 kPa	1302.2
323.13 K, 4770 kPa	1317.9
323.13 K, 4790 kPa	1318.1
323.13 K, 4820 kPa	1318.3
323.13 K, 4850 kPa	1318.7
323.13 K, 4880 kPa	1318.9
323.13 K, 4900 kPa	1319.2
323.13 K, 4920 kPa	1319.4
323.13 K, 6440 kPa	1333.7
323.13 K, 6489 kPa	1334.1
323.13 K, 6508 kPa	1334
323.13 K, 6533 kPa	1334.5
323.13 K, 6605 kPa	1335.1
323.13 K, 6623 kPa	1335.3
323.13 K, 6650 kPa	1335.4
323.13 K, 6668 kPa	1335.7
323.13 K, 6696 kPa	1335.8
323.13 K, 6716 kPa	1336
323.13 K, 6734 kPa	1336.3
323.13 K, 6759 kPa	1336.4
323.13 K, 7026 kPa	1338.8
323.14 K, 920 kPa	1271.8
323.14 K, 940 kPa	1272.1
323.14 K, 1020 kPa	1273.1
323.14 K, 1040 kPa	1273.4
323.14 K, 1060 kPa	1273.7
323.14 K, 1070 kPa	1274.1
323.14 K, 1090 kPa	1274.2
323.14 K, 1110 kPa	1274.5
323.14 K, 1130 kPa	1274.7
323.14 K, 1140 kPa	1275.1
323.14 K, 1170 kPa	1275.4
323.14 K, 1180 kPa	1275.5
323.14 K, 1200 kPa	1275.9
323.14 K, 1220 kPa	1276
323.14 K, 1240 kPa	1276.4
323.14 K, 1260 kPa	1276.7
323.14 K, 1290 kPa	1276.9
323.14 K, 1330 kPa	1277.6
323.14 K, 1350 kPa	1277.8
323.14 K, 1370 kPa	1278.2
323.14 K, 1390 kPa	1278.3
323.14 K, 1410 kPa	1278.7
323.14 K, 1420 kPa	1278.8
323.14 K, 1450 kPa	1279.2
323.14 K, 1470 kPa	1279.6
323.14 K, 1500 kPa	1279.9
323.14 K, 1520 kPa	1280.1
323.14 K, 1550 kPa	1280.6
323.14 K, 1580 kPa	1281.1
323.14 K, 1610 kPa	1281.4
323.14 K, 1630 kPa	1281.6
323.14 K, 1640 kPa	1282
323.14 K, 1670 kPa	1282.1
323.14 K, 1690 kPa	1282.5
323.14 K, 1710 kPa	1282.7
323.14 K, 1730 kPa	1283.1
323.14 K, 1750 kPa	1283.3
323.14 K, 1780 kPa	1283.7
323.14 K, 1860 kPa	1284.7
323.14 K, 1880 kPa	1285
323.14 K, 1900 kPa	1285.3
323.14 K, 1920 kPa	1285.4
323.14 K, 1940 kPa	1285.8
323.14 K, 1960 kPa	1285.9
323.14 K, 1980 kPa	1286.3
323.14 K, 2000 kPa	1286.6
323.14 K, 2020 kPa	1286.8
323.14 K, 2290 kPa	1290.2
323.14 K, 2310 kPa	1290.6
323.14 K, 2330 kPa	1290.7
323.14 K, 2350 kPa	1291
323.14 K, 2380 kPa	1291.3
323.14 K, 2390 kPa	1291.5
323.14 K, 2410 kPa	1291.7
323.14 K, 2430 kPa	1291.9
323.14 K, 2450 kPa	1292.3
323.14 K, 2480 kPa	1292.4
323.14 K, 2500 kPa	1292.9
323.14 K, 2530 kPa	1293.2
323.14 K, 2560 kPa	1293.6
323.14 K, 2570 kPa	1293.8
323.14 K, 2600 kPa	1294
323.14 K, 2610 kPa	1294.3
323.14 K, 2630 kPa	1294.4
323.14 K, 2650 kPa	1294.8
323.14 K, 2670 kPa	1295
323.14 K, 2830 kPa	1296.9
323.14 K, 2890 kPa	1297.6
323.14 K, 2920 kPa	1297.7
323.14 K, 2940 kPa	1298.3
323.14 K, 2960 kPa	1298.4
323.14 K, 2980 kPa	1298.6
323.14 K, 3060 kPa	1299.4
323.14 K, 3310 kPa	1302.4
323.14 K, 3340 kPa	1302.7
323.14 K, 3360 kPa	1303
323.14 K, 3380 kPa	1303.3
323.14 K, 3410 kPa	1303.5
323.14 K, 3440 kPa	1303.9
323.14 K, 3470 kPa	1304.1
323.14 K, 3480 kPa	1304.3
323.14 K, 3510 kPa	1304.5
323.14 K, 3530 kPa	1304.8
323.14 K, 3550 kPa	1305
323.14 K, 3570 kPa	1305.4
323.14 K, 3600 kPa	1305.5
323.14 K, 3640 kPa	1306.1
323.14 K, 3660 kPa	1306.3
323.14 K, 3680 kPa	1306.5
323.14 K, 3700 kPa	1306.7
323.14 K, 3720 kPa	1307
323.14 K, 3750 kPa	1307.2
323.14 K, 3770 kPa	1307.5
323.14 K, 3790 kPa	1307.7
323.14 K, 3810 kPa	1308
323.14 K, 3840 kPa	1308.2
323.14 K, 3860 kPa	1308.5
323.14 K, 3880 kPa	1308.7
323.14 K, 3900 kPa	1309
323.14 K, 3920 kPa	1309.1
323.14 K, 3950 kPa	1309.4
323.14 K, 3970 kPa	1309.8
323.14 K, 4000 kPa	1309.9
323.14 K, 4020 kPa	1310.2
323.14 K, 4040 kPa	1310.3
323.14 K, 4070 kPa	1310.7
